Consider 37 compounds from the SangsterLogP compilation.

Non-standard residues stand in square brackets, D forms with d. Residues, ends and D or L forms follow the SMILES beside them. Sar = CNCC(=O)O

Data set [1] is described as follows: method code SF-HPLC, from DOI: 10.1211/0022357001774101, PMID: 10813545.
Data set [2] in a line: method code SF-AS, from PMID: 17296250. The following applies: pH 7.2.
A short description of data set [3]: method code SF, from DOI: 10.1021/jm9910932, PMID: 10633041. As to conditions: pH 7.4.
Data set [4] in a line: method code SF-HPLC, from DOI: 10.1002/jps.2600830407, PMID: 8046599. As to conditions: pH 7.0.
The nature of data set [5]: method code SF-AS, from DOI: 10.1248/cpb.26.2832.
The conditions of data set [6]: pH 7.4.
Data set [7] can be described thus: method code SF-AS, from PMID: 7460030. As to conditions: pH 7.3.
A short description of data set [8]: method code SF, from DOI: 10.1016/j.bmc.2011.10.022, PMID: 22100260. The following applies: pH 7.4.
Data set [9] in a line: method code SF-RC, from DOI: 10.1016/0378-5173(86)90124-9.
Data set [10] is described as follows: method code SF-AS, from DOI: 10.1016/0014-2999(72)90235-x, PMID: 4113999.
Data set [11] is described as follows: method code SF, from Zhang, H, Oberg. B.; Liu, X.; Fan, Z.; Jia, J.; et, a. (2008). Octanol/water partition coefficient determination of novel fungicide SYP-3343 by flask-shaking method using HPLC. Journal of Safety and …. As to conditions: pH 5.0.
Assay in data set [12]: not given
This is another data set of the same source.

A short description of data set [13]: method code SF, from DOI: 10.1016/j.ejmech.2008.03.040, PMID: 18511157. The following applies: pH 7.4.
Assay in data set [14]: not given
This is another data set of the same source.

Assay in data set [15]: not given
This is another data set of the same source.

Data set [16] in a line: method code SF, from Huang, J.; Leng, X. (1993). Interaction of rat hepatocyte and cytochrome P 450 with pyrethroids in vitro. Dong Wu Xue Bao, 39(4)418-423.
Data set [17] is described as follows: method code SF-RC, from DOI: 10.1016/j.nucmedbio.2014.05.001, PMID: 24969632. The following applies: pH 7.4.
A short description of data set [18]: method code SF, from DOI: 10.1002/cmdc.201000013, PMID: 20373323. As to conditions: pH 7.4.
Data set [19] in a line: method code SF, from DOI: 10.4103/0250-474x.119813, PMID: 24302794. The following applies: pH 7.4.
Data set [20] is described as follows: method code SF-RC, from DOI: 10.1016/j.nucmedbio.2007.12.005, PMID: 18355688. As to conditions: pH 7.4.
Data set [21] can be described thus: method code SF, from DOI: 10.1016/j.ejpb.2011.02.007, PMID: 21329757.
A short description of data set [22]: method code SF, from PMID: 718082.
Data set [23] can be described thus: method code RP-TLC, from DOI: 10.1016/s0021-9673(03)00617-4, PMID: 12830921.
Assay in data set [24]: not given
The source holds these as a separate data set.

Data set [25] in a line: method code SF-HPLC, from DOI: 10.1016/s0223-5234(98)80037-8. The following applies: pH 7.4.
Assay in data set [26]: not given
This is another data set of the same source.

Data set [27] is described as follows: method code SF-AS, from PMID: 1586384.
Data set [28] is described as follows: method code SF, from DOI: 10.1016/j.bmcl.2013.12.011, PMID: 24342238.
Data set [29] in a line: method code SF-HPLC, from DOI: 10.1248/cpb.39.1032.
Assay in data set [30]: not given
The source holds these as a separate data set.

Data set [31] in a line: method code SF-HPLC, from DOI: 10.1002/jps.2600800905, PMID: 1800703. The following applies: pH 7.0.
Assay in data set [32]: not given
This is another data set of the same source.

A short description of data set [33]: method code SF-RC, from DOI: 10.1016/j.nucmedbio.2011.10.019, PMID: 22226022. The following applies: pH 7.4.
A short description of data set [34]: method code SF-RC, from DOI: 10.1016/j.nucmedbio.2006.10.003, PMID: 17210465. As to conditions: pH 7.4.
Data set [35] in a line: method code SF-AS, from DOI: 10.1016/s0022-3565(25)38749-5, PMID: 8182532. The following applies: pH 7.4.
A short description of data set [36]: method code SF-RC, from PMID: 26778147.

`C[C@]12CC[C@H]3[C@@H](CCC4=CC(=O)CC[C@@]43C)[C@@H]1CC[C@@H]2OC(=O)CCC(=O)O`: in data set [1], the logP turned out to be 3.55.

On to `CC(C=CC1=C(C)CCC1(C)C)=CC=CC(C)=CC=NNC(N)=S`, for which the pH-dependent lipophilicity (logD) in data set [2] came to 1.05.

The compound `CC(=O)NCC(=O)N(C)CC(=O)NC(CC(C)C)C(=O)NC(Cc1ccccc1)C(N)=O` (configuration not stated) (Ac-G[Sar]LF-NH2; configuration not given here) came in with a logD in data set [3] of 1.64.

Take `Cc1cn(C2CC(N=[N+]=[N-])C(COC(=O)CNC(=O)C34CC5CC(CC(C5)C3)C4)O2)c(=O)[nH]c1=O` (configuration not stated): the logD in [4] was determined as 2.1.

`CC(=O)[C@H]1CC[C@H]2[C@@H]3CCC4=CC(=O)CC[C@]4(C)[C@H]3C(O)C[C@]12C` (some centres not stated) came in with a logP in [5] of 2.36.

Consider `Cc1c(C(=O)Nc2ccc(F)cc2)nn(-c2ccc(Cl)cc2Cl)c1-c1ccc(Br)cc1`, for which the logD in data set [6] was determined as 4.

`CCCCCCCOc1cccc(NC(=O)OC2CCCCC2n2ccnc2)c1` (configuration not stated) displayed a logD in data set [7] of 5.64.

With `CCN1CCN(S(=O)(=O)c2cnc(O)c(-c3nc4c5n(nc4c(=O)[nH]3)CCCC5CCOC)c2)CC1` (configuration not stated), the log distribution coefficient (logD) in data set [8] was determined as 1.6.

Compound `CCN(Cc1cccnc1)C(=O)CN(c1ccc(OC)nc1)S(=O)(=O)c1ccccc1C` showed a logP of 2.24.

Compound `CCCCC[C@H](O)/C=C/[C@@H]1[C@@H](C/C=C\CCCC(=O)OC)[C@@H](O)C[C@H]1O` gave a logP in data set [9] of 3.07.

In data set [10], `OCCN1CCN(CC/C=C2/c3ccccc3Sc3ccc(C(F)(F)F)cc32)CC1` returned a logP of 3.83.

In turn, `CO/C=C(/C(=O)OC)c1ccccc1COc1cc(C)nn1-c1ccc(Cl)cc1` showed a logD in data set [11] of 4.37.

For the compound `Cc1ccc(N2C(=O)C(=O)N(C(=O)COc3ccc4c(C)cc(=O)oc4c3C)C2=O)cc1`, in data set [12], the lipophilicity (logP) was 0.84.

`N#Cc1c(C(=O)NC2CCCCC2)nn(-c2ccc(Cl)cc2Cl)c1-c1ccc(I)cc1` displayed a logD in [13] of 3.9.

On to `FCCCCC1OC2(CCN(Cc3ccccc3)CC2)c2ccccc21` (configuration not stated), for which the logP in data set [14] worked out at 4.06.

In turn, `CC(=O)O[C@]1(C(C)=O)CC[C@H]2[C@@H]3CCC4=CC(=O)CC[C@]4(C)[C@H]3CC[C@@]21C` had a logP in [15] of 3.79.

Consider `CC1(C)C(C(=O)OC(C#N)c2cccc(Oc3ccccc3)c2)C1(C)C` (configuration not stated), for which the logP in [16] amounted to 5.5.

`O=C(OC(C(F)(F)F)C(F)(F)F)N1CCC(C(O)(c2ccc3c(c2)OCO3)c2ccc3c(c2)OCO3)CC1` registered a logD in [17] of 4.67.

As to `O=C1NC(=O)C(c2ccc(Oc3ccccc3)cc2)(N2CCN(CCF)CC2)C(=O)N1`, in data set [18], the logD stood at 2.15.

For `CCc1cccc2c3c([nH]c12)C(CC)(CC(=O)N[C@@H](C=O)[C@@H](O)[C@H](O)[C@H](O)CO)OCC3` (some centres not stated), the logD in data set [19] amounted to 1.35.

Take `CN(Cc1ccccc1)C(=O)Cc1c(-c2ccc(Cl)cc2)nc2c(Cl)cc(Cl)cn12`: the logD in [20] came to 2.67.

As for `C#C[C@]1(O)CC[C@H]2[C@@H]3CCC4=Cc5oncc5C[C@]4(C)[C@H]3CC[C@@]21C`, the logP in data set [21] stood at 4.21.

In [22], `CC(=O)Nc1c(I)c(COC2C(O)C(O)OC(CO)C2O)c(I)c(COC2C(O)C(O)OC(CO)C2O)c1I` (configuration not stated) came in with a logP of -1.92.

As for `CCOC(=O)C1=C[C@]2(CC)CCCN3CCc4c(n1c1ccccc41)[C@@H]32`, the lipophilicity (logP) in data set [23] came to 4.23.

Take `COc1cc(N)c(Cl)cc1C(=O)NC1CC2CCCC(C1)N2Cc1ccc(F)cc1` (configuration not stated): the logP in [24] is 2.56.

`COc1ccc2cc(C(C)C(=O)OCN3C(=O)c4ccccc4C3=O)ccc2c1` (configuration not stated) displayed a logD in data set [25] of 5.03.

Regarding `CC(C)c1nc(N(C)S(C)(=O)=O)nc(-c2ccc(F)cc2)c1/C=C\C(O)CC(O)CC(=O)O` (configuration not stated), the logP in [26] stood at 2.4.

In [27], `CCOC(=O)OC(C)OC(=O)c1cn2c3c(c(N4CCN(C)CC4)c(F)cc3c1=O)OCC2C` (configuration not stated) showed a logP of 0.44.

In turn, `COc1cc(C=CC(O)=CC(=O)C=Cc2ccc(O)c(N(C)C)c2)ccc1O` had a logP in [28] of 3.65.

In data set [29], `C=C[C@@]1(C)CC(=O)[C@]2(O)[C@@]3(C)[C@@H](O)CCC(C)(C)[C@@H]3[C@H](O)[C@H](OC(C)=O)[C@@]2(C)O1` had a logP of 3.12.

The compound `O=C(OCC1C2CC3CCC1N3CC2=Cc1ccc(I)c(Cl)c1)c1ccccc1` (configuration not stated) had a log partition coefficient (logP) in [30] of 6.41.

`CC[C@H](C)C(=O)O[C@H]1C[C@H](O)C=C2C=C[C@H](C)[C@H](CC[C@@H]3C[C@@H](O)CC(=O)O3)[C@H]21` showed a logD in data set [31] of 2.45.

With `CC[C@H](C)[C@H](N)C(=O)N[C@@H](CC(C)C)C1(c2ccc(Cl)cc2)CCC1`, in data set [32], the lipophilicity (logP) was 4.75.

Regarding `CCCCOc1c(OC)ccc2cc(C(=O)NCc3ccc(F)cc3)c(=O)[nH]c12`, the log distribution coefficient (logD) in data set [33] worked out at 4.4.

`CN(C)c1ccc(C=Cc2ccc(OCCOCCOCCF)cc2)cc1` displayed a logD in data set [34] of 2.41.

`O=S1(=O)c2cccc3cccc(c23)N1CCCN1CCN(c2ccc(F)cc2)CC1` returned a log distribution coefficient (logD) in [35] of 3.6.

The compound `O=C(Nc1ccc(F)cc1)c1ccc(N2CCN(C(=O)c3ccccc3C(F)(F)F)CC2)nn1` returned a logP in data set [36] of 2.08.
